Laboratory results published in patent US20130115181A1, “AQUEOUS PHARMACEUTICAL SYSTEM FOR THE ADMINISTRATION OF DRUGS TO THE NAILS” (UNIVERSIDADE DE SANTIAGO DE COMPOSTELA, priority 2010, published 2013).

Assays:
[1] = Triamcinolone acetonide solubility in Pluronic F127NF / cyclodextrin systems; type: physicochemical; conditions: systems with Pluronic F127NF, HPB or MBCD; 25° C.
Method: Aqueous dispersions of Pluronic F127NF containing a 0.10 and 15%, were prepared by stirring the polymer in water at 4° C. to study the incorporation of the drug. Hydroxypropyl-β-cyclodextrin or partially methylated β-cyclodextrin at concentrations of 0, 0.5% and 10% were also incorporated. Triamcinolone acetonide was added in amounts that far exceeded its aqueous solubility and was stirred at 25° C. for a week. The amount of dissolved triamcinolone was determined spectrophotometrically after filtering the dispersions through a membrane filter of 0.45 micron pore size.

[2] = Penetration of triamcinolone acetonide through calf hoof, Franz-Chien cells; type: in vitro ADME; conditions: solutions in the absence of N-acetylcysteine
Text: For the preparation of thermosensitive systems used in penetration studies through the nail we proceeded as it follows:
1.—Dispersion of the Pluronic F127NF at 10 or 20% (depending on the formulation) in cold water with magnetic stirring until complete dissolution.
2.—Incorporation of triamcinolone acetonide in quantities for concentrations close to saturation (see FIG. 1). […]
In the formulations containing partially methylated β-cyclodextrin, it was incorporated into the system at concentrations of 10% prior to the dissolution of triamcinolone acetonide in order to increase aqueous concentration of the drug (see FIG. 1).
(§1) To perform the penetration studies, cylindrical thin slices of calf hoof membrane (0.8-1 mm) were used. The bovine hoof samples were placed using two Teflon adapters between the donor and acceptor compartment of vertical Franz-Chien penetration cells. In the receptor compartment, phosphate buffer (pH 7.4) was added and maintained at 37° C. 1 g of the thermosensitive systems was placed into the […]. Samples from receptor solution were collected at scheduled time, determining the concentration of triamcinolone acetonide by HPLC. The results were normalized by the diffusion surface and the thickness of the calf hoof slides used.

[3] = Penetration of ciclopirox olamine through calf hoof, Franz-Chien cells; type: in vitro ADME; conditions: solutions in the absence of N-acetylcysteine
Method: Thermosensitive systems used in penetration studies were prepared as it follows:
1.—Dispersion of the Pluronic F127NF to 20% in cold water with magnetic stirring until complete dissolution.
2.- Ciclopirox olamine was incorporated in adequate quantities for concentrations close to saturation (see FIG. 3). […]
In the formulations prepared with partially methylated β-cyclodextrin, it was incorporated into the system at a concentration of 10% prior to the dissolution of triamcinolone acetonide, allowing soluble increasing doses of the drug (see FIG. 3).
as §1, with “Penetration studies were performed with” for “To perform the penetration studies,”, “mm).” for “mm) were used.”, “[…] The medium extracted was replaced with” for “Samples from receptor solution were collected at scheduled time, determining”, “same amount” for “concentration”, “buffer.” for “triamcinolone acetonide by HPLC.”

[4] = Ciclopirox olamine solubility in Pluronic F127NF / cyclodextrin systems; type: physicochemical; conditions: systems with Pluronic F127NF, HPB or MBCD; 25° C.
Method: Dispersions of Pluronic F127NF (0, 10 and 15%) were prepared incorporating hydroxypropyl-β-cyclodextrin or partially methylated β-cyclodextrin at concentrations of 0, 0.5% and 10%. Ciclopirox olamine was added in amounts that far exceeded its aqueous solubility and was stirred at 25° C. for a week. The amount of dissolved ciclopirox was determined spectrophotometrically after filtering the dispersions. Pluronic F127NF dispersions containing 10% of hydroxypropyl-β-cyclodextrin or partially methylated β-cyclodextrin (5% or 10%) and N-acetylcysteine (5-10%) or urea (10-20%) has been studied.

Compound | Effect of N-acetylcysteine on triamcinolone acetonide solubility [1] | Penetration of triamcinolone acetonide through calf hoof [2] | Diffusion and penetration of ciclopirox olamine through calf hoof [3] | Effect of N-acetylcysteine or urea on ciclopirox olamine solubility [4]
CC1(C)O[C@@H]2C[C@H]3[C@@H]4CCC5=CC(=O)C=C[C@]5(C)[C@@]4(F)[C@@H](O)C[C@]3(C)[C@]2(C(=O)CO)O1 [Triamcinolone acetonide] | did not alter the solubility | did not detect the penetration |  | 
Cc1cc(C2CCCCC2)n(O)c(=O)c1 [Ciclopirox olamine] |  |  | did not detect drug diffusion and penetration | significantly influences the solubility
